Laboratory results as given in US20210161868A1, “ANTI-INFLAMMATORY THERAPY IN ARRHYTHMOGENIC CARDIOMYOPATHY (ACM)” (Beth Israel Deaconess Medical Center, Inc., priority 2018, published 2021).
“Also recorded” adds a separate entry of the source.

Legend:
ACM mice = assay: Arrhythmias in ACM mice treated with SB216763 (previous unpublished observations); type: in vivo
models of ACM = details: multiple in vitro and in vivo models, human iPSC-cardiac myocytes; cited from earlier work
[1] = system: neonatal rat ventricular myocytes (NRVMs) expressing JUP^2157del2; details: NRVMs expressing mutant plakoglobin, previous reports; cited from earlier work

Structure (SMILES): Cn1cc(C2=C(c3ccc(Cl)cc3Cl)C(=O)NC2=O)c2ccccc21 [SB216763]
- time to return of arrhythmias after cessation of treatment (ACM mice; ACM mice): ≤ 48 h
- time to cessation of arrhythmias (ACM mice; ACM mice under treatment): ≤ 24 h
- full ACM disease phenotype (models of ACM): prevent and/or reverse
- in vitro ACM features (protein redistribution, apoptosis, cytokines) [1]: blocked; also recorded: normalized
